According to ChEMBL document CHEMBL4190260, “Antibiofilm potential of 16-oxo-cleroda-3, 13(14) E-diene-15 oic acid and its five new γ-amino γ-lactone derivatives against methicillin resistant Staphylococcus aureus and Streptococcus mutans” (2017):
Calls of active or inactive are those of the source. The calls are words filed in the database; no cut-off is given here.

Columns and labels:
[1] = system: Streptococcus mutans; experiment: Antibacterial activity against Streptococcus mutans ATCC 25175 measured after overnight incubation by two-fold serial dilution method; type: functional
[2] = system: Proteus mirabilis; experiment: Antibiofilm activity against Proteus mirabilis ATCC 12453 measured after overnight incubation by crystal violet-staining based assay; type: functional
[3] = system: Streptococcus mutans; experiment: Antibiofilm activity against Streptococcus mutans ATCC 25175 measured after overnight incubation by crystal violet-staining based assay; type: functional
[4] = system: Klebsiella pneumoniae; experiment: Antibiofilm activity against Klebsiella pneumoniae ATCC 13882 at >= 50 ug/ml measured after overnight incubation by crystal violet-staining based assay; type: functional, organism-based
[5] = system: Proteus mirabilis; experiment: Antibacterial activity against Proteus mirabilis ATCC 12453 measured after overnight incubation by two-fold serial dilution method; type: functional
[6] = system: Staphylococcus aureus; experiment: Antibacterial activity against methicillin-resistant Staphylococcus aureus ATCC 43300 measured after overnight incubation by two-fold serial dilution method; type: functional
[7] = system: Klebsiella pneumoniae; experiment: Antibacterial activity against Klebsiella pneumoniae ATCC 13882 measured after overnight incubation by two-fold serial dilution method; type: functional
[8] = system: Proteus mirabilis; experiment: Antibiofilm activity against Proteus mirabilis ATCC 12453 at >= 50 ug/ml measured after overnight incubation by crystal violet-staining based assay; type: functional, organism-based
[9] = system: Staphylococcus aureus; experiment: Antibiofilm activity against methicillin-resistant Staphylococcus aureus ATCC 43300 measured after overnight incubation by crystal violet-staining based assay; type: functional
[10] = system: Klebsiella pneumoniae; experiment: Antibiofilm activity against Klebsiella pneumoniae ATCC 13882 measured after overnight incubation by crystal violet-staining based assay; type: functional

SMILES	MIC [1]	Activity [2]	MBIC [2]	Activity [3]	MBIC [3]	Activity [4]	MIC [5]	MIC [6]	MIC [7]	Activity [8]	Activity [9]	Activity [10]	MBIC [10]	MBIC [9]
CC1=CCC[C@@H]2[C@@](C)(CC/C(C)=C/C(=O)O)[C@H](C)CC[C@@]12C	inactive													
CC1=CCC[C@@H]2[C@@](C)(CCC3=CC(=O)OC3Nc3cccc(F)c3)[C@H](C)CC[C@@]12C (mixture of isomers)	60 µg/mL	68.75%	110 µg/mL	73.17%	55 µg/mL	Active	125 µg/mL	60 µg/mL	inactive	Active	83.12%			
CC1=CCC[C@@H]2[C@@](C)(CCC3=CC(=O)OC3Nc3ccccc3F)[C@H](C)CC[C@@]12C (mixture of isomers)	50 µg/mL	62.5%	90 µg/mL	69.05%	45 µg/mL	Active	125 µg/mL	45 µg/mL	inactive	Active	76.25%			
CC1=CCC[C@@H]2[C@@](C)(CCC3=CC(=O)OC3Nc3ccc(-c4ccc(NC5OC(=O)C=C5CC[C@@]5(C)[C@H](C)CC[C@@]6(C)C(C)=CCC[C@H]56)c(C)c4)cc3C)[C@H](C)CC[C@@]12C (mixture of isomers)	inactive													
CN[C@@H]1[C@@H](O)[C@@H](O[C@@H]2[C@@H](O)[C@H](O[C@H]3O[C@H](CN)CC[C@H]3N)[C@@H](N)C[C@H]2N)OC[C@]1(C)O.O=S(=O)(O)O	10 µg/mL	89.22%	6.25 µg/mL	76.42%	10 µg/mL		6.25 µg/mL	135 µg/mL	3 µg/mL		90.8%	89.92%	3 µg/mL	150 µg/mL
